We go through four molecules from US9700024B2 (priority 2010, dated 2017).

“Also recorded” adds a separate entry of the source.

Data set [1] concerns human umbilical vein endothelial cells (HUVECs). The data set can be described thus: In vitro expression of PIGF as an effect of statin, HUVEC. Conditions: statin 1 μM or 10 μM, 24 hours. It counts as cell-based. How it is done: For HUVEC cells, each of the stock solutions was added upon dilution to 1 μM or 10 μM in a culture medium.
HUVEC and HEK293T cells were plated at 2×10^4 and 1×10^5 cells per well in 6-well plates, respectively, and incubated under 5% CO2 at 37° C. After 24 hours, the medium was replaced with a fresh medium containing or not containing a statin. The media collected after another 24 hours were centrifuged at 1,000×g, and the supernatants were subjected to ELISA.

Data set [2] has as its system pregnancy-induced hypertension syndrome model mice (placenta-specific hsFLT1 expression). The data set can be described thus: Urinary albumin/creatinine (proteinuria) in model mice. It is filed as in vivo, mouse. To be noted: urine at E18.5; average ± S.E.M. How it is done: (§1) Blood samples were allowed to clot and were centrifuged to prepare serum samples. Concentrations of hsF1T1, mVEGF, and mPIGF were measured with ELISA kits, according to the manufacturer's instructions (R&D system). Aspartate aminotransferase (AST) and alanine transaminase (ALT) were measured by Fuji dry-chem 3500V and dri-chem slides (Fuji Film.co). Urine samples were collected at E18.5. Urine albumin and creatinine concentrations were measured by using the Fuji dry-chem 3500V and dri-chem slides (Fuji Film.co, Tokyo Japan).

The test system of data set [3] is mPIGF. In words: mPIGF concentration in the mother's blood by ELISA, LV-hsFLT1 model. It counts as in vivo, mouse. To be noted: E18.5, pravastatin every day from E7.5, n=7. How it is done: as §1
A further data set concerns wild-type pregnant mice. Conditions: normal pregnant animals without LV-hsFLT1.
The subject of data set [4] is mPIGF. The data set can be described thus: Circulating mPIGF in wild-type female mice not treated with viral vector. It is filed as in vivo, mouse. On the procedure:
Pravastatin sodium salt (Cayman Chemical) was dissolved in 100% ethanol to produce a stock solution (1 mg/mL), which was diluted by sterile PBS (25 μg/mL) before use and intraperitoneally injected every day starting from E7.5 to E18.5 at 5 μg/animal unless specifically instructed otherwise.
as §1

The next data set has as its system hsFLT1. In words: hsFLT1 concentration in the mother's blood by ELISA. It is filed as in vivo, mouse. Conditions: E18.5; LV-hsFLT1 100 ng-p24/mL; pravastatin every day from E7.5 where given; mean±s.e.m. How it is done: as §1
In data set [5] the test system is pups of the pravastatin-treated female animals. The data set can be described thus: Deformity in pups of treated female animals.
A further data set has as its system mVEGF. The data set can be described thus: mVEGF concentration in the mother's blood by ELISA. It counts as in vivo, mouse. To be noted: E18.5; LV-hsFLT1 model; pravastatin every day from E7.5; n=6. On the procedure:
as §1

Data set [6] deals with rat model of preeclampsia. Conditions: Hypertension 2007; 50(4): 686-92; cited from earlier work.
Data set [7] deals with hypertension induced by sFLT1 expressed by an adenovirus. To be noted: Hypertension 2009; 54(5): 1129-35; cited from earlier work.

Description for wild-type pregnant mice: Blood pressure was measured by the tail-cuff method (Softron Ltd, Tokyo, Japan). The mice were lightly fixed in a small cage without anesthesia, and their blood pressure was measured after their behavior, heart rate, and blood pressure stabilized. After stabilization, both systolic and diastolic blood pressures were recorded at least five times until the stabilization became unstable. Mean values of both the systolic and diastolic blood pressures measured as mentioned above were used for further statistical analysis.

In the case of `CC(C)c1c(C(=O)Nc2ccccc2)c(-c2ccccc2)c(-c2ccc(F)cc2)n1CC[C@@H](O)C[C@@H](O)CC(=O)O` [atorvastatin, (−)-Monocalcium bis {(3R,5R)-7-[2-(4-fluorophenyl-5-isopropyl-3-phenyl-4-phenylcarbamoyl-1H-pyrrol-1-yl]-3,5-dihydroxyheptanoate}trihydrate], the “PIGF production in supernatant” value in data set [1] is reported as “induced PGF production; also recorded: induce PIGF production”.
As to `CC[C@H](C)C(=O)O[C@H]1C[C@H](O)C=C2C=C[C@H](C)[C@H](CC[C@@H](O)C[C@@H](O)CC(=O)O)[C@H]21` [pravastatin, Monosodium(3R,5R)-3,5-dihydroxy-7-{(1S,2S,6S,8S,8aR)-6-hydroxy-2-methyl-8-[(2S)-2-methylbutanoyloxy]-1,2,6,7,8,8a-hexahydronaphthalen-1-yl}heptanoate], the “ALBUMIN/CREATININE AVERAGE” value in [2] was 4.06 ± 0.38. For the same molecule, the “mPIGF concentration in maternal blood” value in the data set on mPIGF [3] stood at 116.6 ± 13.2 pg/mL. In addition, the “blood pressure / hypotensive effect” value in the data set with wild-type pregnant mice was “not hypotensive; also recorded: did not change”. Moreover, the “circulating mPIGF” value in the data set on mPIGF [4] (wild-type non-pregnant female animals, n=5) was 29.8 ± 13.2 pg/mL; in the data set on mPIGF [4] (wild-type pregnant female animals, n=4) it was 152.0 ± 19.7 pg/mL. The “circulating hsFLT1 concentration in the mother's blood” value in the data set with hsFLT1 was determined as 0.99 ± 0.65 ng/mL. Also, in data set [5], the “deformity in the pups” value was “did not notice any deformity”. In the data set with mVEGF, the “mVEGF protein level in maternal blood” value amounted to 35.5 ± 13.6 pg/mL.
With VEGF, the hypertension result in data set [6] is recorded as “improves hypertension”.

B1: recombinant PIGF: recombinant placental growth factor 2 (literature) (protein)
chain: VHSQGALSAGNNSTEVEVVPFNEVWGRSYCRPMEKLVYILDEYPDEVSHIFSPSCVLLSRCSGCCGDEGLHCVPIKTANITMQILKIPPNRDPHFYVEMTFSQDVLCECRPILETTKAERRKTKGKRKRSRNSQTEEPHP
As for B1, in [7], the hypertension result is “improves hypertension”.
